In ChEMBL document CHEMBL4825716, “Novel N-Heteroaryl Quinazolin-2-amine Derivatives as LRRK2 Inhibitors for Treating Parkinson's Disease” (ACS Med Chem Lett, 2021):

Biological target: Leucine-rich repeat serine/threonine-protein kinase 2 (Homo sapiens, UniProt Q5S007, G2019S)
Assay: Inhibition of Kinase tracer 236 binding to GST-tagged truncated human LRRK2 G2019S (970 to 2527 residues) mutant using fluorescein labeled LRRKtide peptide as substrate preincubated for 15 mins followed by substrate addition measured after 90 mins in presence of ATP at Km concentration by TR-FRET Lanthascreen assay

Sequence of Leucine-rich repeat serine/threonine-protein kinase 2 (Q5S007 whole entry G2019S, the tested form may be a part): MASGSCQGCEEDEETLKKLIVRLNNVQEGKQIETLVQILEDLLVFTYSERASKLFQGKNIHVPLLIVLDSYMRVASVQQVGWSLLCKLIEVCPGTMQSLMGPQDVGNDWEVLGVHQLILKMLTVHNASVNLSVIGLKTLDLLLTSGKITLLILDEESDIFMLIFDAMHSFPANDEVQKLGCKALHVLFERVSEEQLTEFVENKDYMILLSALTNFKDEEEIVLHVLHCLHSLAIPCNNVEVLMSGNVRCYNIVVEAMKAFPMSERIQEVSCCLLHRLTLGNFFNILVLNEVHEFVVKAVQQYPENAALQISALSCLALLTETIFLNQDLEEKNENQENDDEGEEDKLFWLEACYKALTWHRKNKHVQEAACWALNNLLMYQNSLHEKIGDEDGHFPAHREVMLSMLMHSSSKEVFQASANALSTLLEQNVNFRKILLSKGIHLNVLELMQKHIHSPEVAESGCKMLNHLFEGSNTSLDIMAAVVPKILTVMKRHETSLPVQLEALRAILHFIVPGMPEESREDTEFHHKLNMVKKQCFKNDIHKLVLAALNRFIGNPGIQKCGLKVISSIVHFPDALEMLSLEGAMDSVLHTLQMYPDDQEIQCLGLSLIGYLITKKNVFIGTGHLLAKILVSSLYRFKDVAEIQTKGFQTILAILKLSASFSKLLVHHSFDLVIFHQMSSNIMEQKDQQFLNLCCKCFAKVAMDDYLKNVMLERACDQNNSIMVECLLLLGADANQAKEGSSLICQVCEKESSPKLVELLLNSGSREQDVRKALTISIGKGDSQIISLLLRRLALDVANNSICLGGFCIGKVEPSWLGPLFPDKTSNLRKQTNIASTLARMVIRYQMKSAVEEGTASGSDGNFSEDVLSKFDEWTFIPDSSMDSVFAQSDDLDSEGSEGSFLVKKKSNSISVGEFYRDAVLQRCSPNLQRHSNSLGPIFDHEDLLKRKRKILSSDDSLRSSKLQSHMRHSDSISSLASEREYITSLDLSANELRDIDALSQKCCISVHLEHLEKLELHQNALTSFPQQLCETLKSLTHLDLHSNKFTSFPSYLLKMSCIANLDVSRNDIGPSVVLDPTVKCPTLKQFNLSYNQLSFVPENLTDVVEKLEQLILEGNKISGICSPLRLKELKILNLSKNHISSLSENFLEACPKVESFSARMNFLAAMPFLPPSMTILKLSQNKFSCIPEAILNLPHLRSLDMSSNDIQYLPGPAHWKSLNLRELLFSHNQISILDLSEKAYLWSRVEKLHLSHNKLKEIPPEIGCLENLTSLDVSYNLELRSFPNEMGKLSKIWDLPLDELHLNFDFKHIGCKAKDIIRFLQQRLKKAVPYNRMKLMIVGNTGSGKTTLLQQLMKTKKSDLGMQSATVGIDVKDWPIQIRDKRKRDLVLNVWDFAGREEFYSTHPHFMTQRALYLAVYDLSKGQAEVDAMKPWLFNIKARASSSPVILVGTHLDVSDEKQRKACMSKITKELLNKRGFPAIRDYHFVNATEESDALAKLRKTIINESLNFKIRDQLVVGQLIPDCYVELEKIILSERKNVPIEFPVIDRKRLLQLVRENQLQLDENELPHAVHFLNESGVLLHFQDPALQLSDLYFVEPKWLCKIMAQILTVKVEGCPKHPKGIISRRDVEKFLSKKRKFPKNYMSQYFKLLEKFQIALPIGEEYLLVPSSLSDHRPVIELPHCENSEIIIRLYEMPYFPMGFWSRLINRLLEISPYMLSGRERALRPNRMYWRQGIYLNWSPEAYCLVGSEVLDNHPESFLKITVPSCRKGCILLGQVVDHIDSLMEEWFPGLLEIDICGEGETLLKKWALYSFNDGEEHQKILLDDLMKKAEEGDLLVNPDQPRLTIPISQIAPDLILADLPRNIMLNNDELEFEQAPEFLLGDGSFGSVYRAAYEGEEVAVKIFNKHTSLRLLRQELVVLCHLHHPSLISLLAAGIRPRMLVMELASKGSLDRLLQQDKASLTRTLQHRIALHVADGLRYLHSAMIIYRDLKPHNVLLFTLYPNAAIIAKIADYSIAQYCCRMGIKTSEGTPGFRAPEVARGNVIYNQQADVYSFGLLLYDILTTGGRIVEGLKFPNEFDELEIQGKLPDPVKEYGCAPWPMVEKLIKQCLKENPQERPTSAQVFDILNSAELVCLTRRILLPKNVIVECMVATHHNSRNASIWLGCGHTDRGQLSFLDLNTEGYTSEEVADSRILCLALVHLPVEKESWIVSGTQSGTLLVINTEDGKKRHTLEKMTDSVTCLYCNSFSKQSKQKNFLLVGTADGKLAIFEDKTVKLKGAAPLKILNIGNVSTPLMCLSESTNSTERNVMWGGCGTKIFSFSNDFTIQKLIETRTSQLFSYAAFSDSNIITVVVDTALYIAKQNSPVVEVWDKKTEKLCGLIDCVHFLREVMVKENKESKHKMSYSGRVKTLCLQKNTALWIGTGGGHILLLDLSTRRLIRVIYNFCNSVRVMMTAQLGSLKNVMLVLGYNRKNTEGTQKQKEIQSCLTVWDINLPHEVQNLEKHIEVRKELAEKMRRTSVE

SMILES | IC50
Cc1c(Nc2ncc3cc(Cl)c(C4CCN(C5COC5)[C@@H](C)C4)cc3n2)cnn1C1CC1 (stereo partly specified) | < 0.631 nM
N#CC1COCC1N1CCC(c2cc3nc(Nc4cnn(C5CC5)c4Cl)ncc3cc2Cl)CC1 (stereo unspecified) | < 0.631 nM
O=S1(=O)CC(N2CCC(c3cc4nc(Nc5cnn(C6CC6)c5Cl)ncc4cc3Cl)CC2)C1 | < 0.631 nM

Results, then the molecule that gave them:

IC50 | SMILES
< 0.631 nM | Cc1cc(Nc2ncc3cc(Cl)c(C4CCN(C5COC5)CC4)cc3n2)sn1
< 0.631 nM | Cc1c(Nc2ncc3cc(Cl)c(C4CCN(C5COCC5F)CC4)cc3n2)cnn1C1CC1 (stereo unspecified)
< 0.631 nM | Cc1c(Nc2ncc3cc(Cl)c(C4CCN(C5(C)COC5)CC4)cc3n2)cnn1C1CCOC1 (stereo unspecified)
